Target: T1, wild-type HIV-1 protease (Human immunodeficiency virus type 1 group M subtype B, UniProt P04585)
T1 construct: Escherichia coli expressed wild-type HIV-1 protease protein; made in house; host or cells: Escherichia coli
Assay: Assay for Inhibition of Microbial Expressed HIV Protease
Type: biochemical
Conditions: Escherichia coli expressed wild-type HIV-1 protease, peptide substrate cleavage; mean of at least two independent experiments
Description: Inhibition of Escherichia coli expressed wild-type HIV-1 protease protein was carried out with a peptide substrate [Val-Ser-Gln-Asn-Wnaphtyl)Ala-Pro-Ile-Val]. The inhibitor compound was preincubated with HIV-1 protease enzyme in assay buffer (50 mM sodium acetate, pH 5.5, 100 mM NaCl, and 0.1% BSA) for 30 minutes at room temperature. Peptide substrate was added to 400 μM in a total volume of 20 μL containing 20 pM HIV-1 protease (final) after which the reaction was incubated for 1 hour at 30° C. The reaction was quenched by the addition of formic acid and HIV protease inhibitor indinavir to 0.012% and 150 nM final concentrations, respectively. Product formation was determined after separation of product and substrate on a ZORBAX Eclipse XDB-C18 column (Aligent Technologies, Santa Clara, Calif., USA) connected to an API 4000™ mass spectrometer (AB Sciex, Pte. Ltd., Concord Ontario, Canada) with multiple reaction monitoring (transitions were 644.5/428.9 and 615.4/422.2 (M1/M3) for product and indinavir respectively). The extent of inhibition of the reaction was determined from the peak area of the products. Analysis of the products, independently synthesized, provided quantitation standards and confirmation of the product composition. […] Ic50's refer to the 50% inhibition of the cleavage of a peptide substrate by hiv protease.
Data shown in the table reflects the mean of at least two independent experiments.

| Structure (SMILES) | IC50 |
| --- | --- |
| CN(Cc1ccccc1S(C)(=O)=O)C(=O)c1cccc(CN2C(=N)NC(c3ccccc3)(c3ccccc3)C2=O)c1 [Example 23, 3-[(2-imino-5-oxo-4,4-diphenylimidazolidin-1-yl)methyl]-N-methyl-N-[2-(methylsulfonyl)-benzyl]benzamide] | 12.9 nM |
| CC(C)CCC1(c2ccccc2)NC(=N)N(Cc2cccc(C(=O)N(C)[C@H](C)c3ccc(F)cc3)c2)C1=O (stereo partly drawn) [Example 24, N-[(1R)-1-(4-fluorophenyl)ethyl]-3-{[2-imino-4-(3-methylbutyl)-5-oxo-4-phenylimidazolidin-1-yl]methyl}-N-methylbenzamide] | 13.2 nM |
| CC(C)CC1(c2ccccc2)NC(=N)N(Cc2cccc(C(=O)N(C)Cc3ccc(Cl)cc3)c2)C1=O (centres unmarked) [Example 25, N-(4-chlorobenzyl)-3-{[2-imino-4-(2-methylpropyl)-5-oxo-4-phenylimidazolidin-1-yl]methyl}-N-methylbenzamide] | 13.8 nM |
| CC(C)CCC1(c2ccccc2)NC(=N)N(Cc2cccc(C(=O)N(C)Cc3ccc(Cl)cc3)c2)C1=O (centres unmarked) [Example 26, N-(4-chlorobenzyl)-3-{[2-imino-4-(3-methylbutyl)-5-oxo-4-phenylimidazolidin-1-yl]methyl}-N-methylbenzamide] | 13.9 nM |
| CCCC1(c2ccccc2)NC(=N)N(Cc2cccc(C(=O)N(C)Cc3ccc(Cl)cc3)c2)C1=O (centres unmarked) [Example 27, N-(4-chlorobenzyl)-3-[(2-imino-5-oxo-4-phenyl-4-propylimidazolidin-1-yl)methyl]-N-methylbenzamide] | 16.9 nM |
| CN(Cc1ccc(F)cc1)C(=O)c1cccc(CN2C(=N)NC(c3ccc(F)cc3)(c3ccc(F)cc3)C2=O)c1 [Example 28, 3-{[4,4-bis(4-fluorophenyl)-2-imino-5-oxoimidazolidin-1-yl]methyl}-N-(4-fluorobenzyl)-N-methylbenzamide] | 17.4 nM |
| CC(C)CCC1(c2ccccc2)NC(=N)N(Cc2cccc(C(=O)N(C)Cc3ccccc3S(C)(=O)=O)c2)C1=O (centres unmarked) [Example 29, 3-{[2-imino-4-(3-methylbutyl)-5-oxo-4-phenylimidazolidin-1-yl]methyl}-N-methyl-N-[2-(methylsulfonyl)-benzyl]benzamide] | 17.8 nM |
| CN(Cc1ccc(Cl)cc1)C(=O)c1cccc(CN2C(=N)NC(c3ccc(F)cc3)(c3ccc(F)cc3)C2=O)c1 [Example 30, 3-{[4,4-bis(4-fluorophenyl)-2-imino-5-oxoimidazolidin-1-yl]methyl}-N-(4-chlorobenzyl)-N-methylbenzamide] | 17.9 nM |
| CC(C)CCC1(c2cccc(-c3cccnc3)c2)NC(=N)N(Cc2cccc(C(=O)N(C)Cc3ccc(C#N)cc3)c2)C1=O (centres unmarked) [Example 31, N-(4-cyanobenzyl)-3-{[2-imino-4-(3-methylbutyl)-5-oxo-4-(3-pyridin-3-ylphenyl)imidazolidin-1-yl]methyl}-N-methylbenzamide] | 19 nM |
| CN(Cc1ccc(F)cc1)C(=O)c1cccc(CN2C(=N)NC(c3ccccc3)(c3ccccc3)C2=O)c1 [Example 32, N-(4-fluorobenzyl)-3-[(2-imino-5-oxo-4,4-diphenylimidazolidin-1-yl)methyl]-N-methylbenzamide] | 19.3 nM |
| CC(C)C[C@]1(c2ccccc2)NC(=N)N([C@H](C)c2cccc(C(=O)N(C)Cc3ccc(F)cc3)c2)C1=O [Example 33, N-(4-fluorobenzyl)-3-((R)-1-((R)-2-imino-4-isobutyl-5-oxo-4-phenylimidazolidin-1-yl)ethyl)-N-methylbenzamide] | 19.8 nM |
| CN(C)C(=O)c1cccc(C2(c3ccc(F)cc3)NC(=N)N(Cc3cccc(C(=O)N(C)Cc4ccc(Cl)cc4)c3)C2=O)c1 (centres unmarked) [Example 34, 3-[1-{3-[(4-chlorobenzyl)(methyl)-carbamoyl]benzyl}-4-(4-fluorophenyl)-2-imino-5-oxoimidazolidin-4-yl]-N,N-dimethylbenzamide] | 19.9 nM |
| CC(C)CCC1(c2ccc(F)cc2)NC(=N)N(Cc2cccc(C(=O)N(C)Cc3ccc(C#N)cc3)c2)C1=O (centres unmarked) [Example 35, N-(4-cyanobenzyl)-3-{[4-(4-fluorophenyl)-2-imino-4-(3-methylbutyl)-5-oxoimidazolidin-1-yl]methyl}-N-methylbenzamide] | 20.5 nM |
| CN(Cc1ccc(Cl)cc1)C(=O)c1cccc(CN2C(=N)NC(c3ccccc3)(c3ccccc3)C2=O)c1 [Example 36, N-(4-chlorobenzyl)-3-[(2-imino-5-oxo-4,4-diphenylimidazolidin-1-yl)methyl]-N-methylbenzamide] | 21.7 nM |
| CN(Cc1ccc(Cl)cc1)C(=O)c1cccc(CN2C(=N)NC(c3ccc(F)cc3)(c3cccc(C#N)c3)C2=O)c1 (centres unmarked) [Example 37, N-(4-chlorobenzyl)-3-{[4-(3-cyanophenyl)-4-(4-fluorophenyl)-2-imino-5-oxoimidazolidin-1-yl]methyl}-N-methylbenzamide] | 23.5 nM |
| CN(Cc1ccnc(Cl)c1)C(=O)c1cccc(CN2C(=N)NC(c3ccc(F)cc3)(c3ccc(F)cc3)C2=O)c1 [Example 38, 3-{[4,4-bis(4-fluorophenyl)-2-imino-5-oxoimidazolidin-1-yl]methyl}-N-[(2-chloropyridin-4-yl)methyl]-N-methylbenzamide] | 23.8 nM |
| CN(Cc1ccc(Cl)cc1)C(=O)c1cccc(CN2C(=N)NC(c3ccc(F)cc3)(c3ccccn3)C2=O)c1 (centres unmarked) [Example 39, N-(4-chlorobenzyl)-3-{[4-(4-fluorophenyl)-2-imino-5-oxo-4-pyridin-2-ylimidazolidin-1-yl]methyl}-N-methylbenzamide] | 24.8 nM |
| CN(Cc1ccc(Cl)cc1)C(=O)c1cccc(CN2C(=N)NC(c3ccc(F)cc3)(c3cccc(Br)c3)C2=O)c1 (centres unmarked) [Example 40, 3-{[4-(3-bromophenyl)-4-(4-fluorophenyl)-2-imino-5-oxoimidazolidin-1-yl]methyl}-N-(4-chlorobenzyl)-N-methylbenzamide] | 25.9 nM |
| C[C@H](c1ccc(Cl)cc1)N(C)C(=O)c1cccc(CN2C(=N)NC(c3ccc(F)cc3)(c3ccc(F)cc3)C2=O)c1 [Example 41, 3-{[4,4-bis(4-fluorophenyl)-2-imino-5-oxoimidazolidin-1-yl]methyl}-N-[(1R)-1-(4-chlorophenyl)ethyl]-N-methylbenzamide] | 26.5 nM |
| CCN(Cc1ccc(F)cc1)C(=O)c1cccc(CN2C(=N)NC(c3ccc(F)cc3)(c3ccc(F)cc3)C2=O)c1 [Example 42, 3-{[4,4-bis(4-fluorophenyl)-2-imino-5-oxoimidazolidin-1-yl]methyl}-N-ethyl-N-(4-fluorobenzyl)benzamide] | 28.6 nM |
| CCCC1(c2ccccc2)NC(=N)N(Cc2cccc(C(=O)N(C)Cc3ccc(F)cc3)c2)C1=O (centres unmarked) [Example 43, N-(4-fluorobenzyl)-3-[(2-imino-5-oxo-4-phenyl-4-propylimidazolidin-1-yl)methyl]-N-methylbenzamide] | 28.7 nM |
| C[C@H](c1ccc(F)cc1)N(C)C(=O)c1cccc(CN2C(=N)NC(c3ccc(F)cc3)(c3ccc(F)cc3)C2=O)c1 [Example 44, 3-{[4,4-bis(4-fluorophenyl)-2-imino-5-oxoimidazolidin-1-yl]methyl}-N-[(1R)-1-(4-fluorophenyl)ethyl]-N-methylbenzamide] | 29.2 nM |
| CN(C)C(=O)c1cccc(CN2C(=N)NC(c3ccccc3)(c3ccc(-c4ccccc4)cc3)C2=O)c1 (centres unmarked) [Example 45, 3-[(4-biphenyl-4-yl-2-imino-5-oxo-4-phenylimidazolidin-1-yl)methyl]-N,N-dimethylbenzamide] | 30.3 nM |

From patent US20200261421A1, “HETEROCYCLIC COMPOUNDS AS HIV PROTEASE INHIBITORS” (Merck Sharp & Dohme Corp., priority 2016, published 2020)
